Key:
Type in all cases: cell-based
[1] = test system: mixed bacterial inoculum (Pseudomonas aeruginosa, Enterobacter cloacae, Escherichia coli, Acinetobacter calcoaceticus); test: Repeated inoculation of standard acrylic paint, streak plate rating
Protocol: In the following experiments, a pyrithione, an isothiazolinone, and a biocide enhancing agent in accordance with the present disclosure were combined with a standard acrylic paint. The concentrations of the pyrithione, the isothiazolinone and the biocide enhancing agent were varied. The pyrithione, the isothiazolinone and the biocide enhancing agent were added alone and in various mixtures to the standard acrylic paint.
The acrylic paint was then inoculated three times using a mixed bacterial inoculum. The bacterial inoculum, which comprised a bacterial suspension in water, contained the following four bacteria in equal proportions.
The samples were streak plated at 24, 48, and 72 hours after inoculation. The streak plates were rated as follows;

Staphylococcus aureus = test: MIC test, 96 well microtiter plate; settings: single chemical
Protocol: (§1) MIC set up: A 96 well microtiter plate Minimum Inhibitory Concentration (MIC) test was run in broth suitable for the test organism. Serially diluted actives were prepared in sterilized water, and the start-up concentration varied depending on the efficacy range. Inocula prepared in 2× suitable broth was added into each well, and the final concentrations of bacteria were adjusted to approximately 5×10^5.
(§2) Further MIC tests were conducted using different amine compounds in combination with a pyrithione and two different isothiazolinones. The procedures described in Example No. 1 were used.

Escherichia coli = test: MIC test, 96 well microtiter plate; settings: single chemical
Protocol: as §1, §2

Candida albicans = test: MIC test, 96 well microtiter plate; settings: single chemical
Protocol: as §1, §2

Aureobasidium pullulans = test: MIC test, 96 well microtiter plate; settings: single chemical
Protocol: as §1, §2

Aspergillus brasiliensis = test: MIC test, 96 well microtiter plate; settings: single chemical
Protocol: as §1, §2

[2] = test system: Pseudomonas aeruginosa ATCC 15442; test: Minimum Inhibitory Concentration (MIC) test, 96 well microtiter plate; settings: single chemical
Protocol: Microorganisms: Pseudomonas aeruginosa ATCC 15442
as §1

O=c1[nH]sc2ccccc12 [BIT, 1,2 Benzisothiazolin-3-one]
streak plate rating ([1]; Set Five, BIT 50 ppm, 1st inoculation 24 h): 5 (>45 viable microorganisms Severely contaminated)
streak plate rating ([1]; Set Five, BIT 50 ppm, 1st inoculation 48 h): 5 (>45 viable microorganisms Severely contaminated)
streak plate rating ([1]; Set Five, BIT 50 ppm, 1st inoculation 72 h): 5 (>45 viable microorganisms Severely contaminated)
streak plate rating ([1]; Set Five, BIT 50 ppm, 2nd inoculation 24 h): 5 (>45 viable microorganisms Severely contaminated)
streak plate rating ([1]; Set Five, BIT 50 ppm, 2nd inoculation 48 h): 5 (>45 viable microorganisms Severely contaminated)
streak plate rating ([1]; Set Five, BIT 50 ppm, 2nd inoculation 72 h): 5 (>45 viable microorganisms Severely contaminated)
streak plate rating ([1]; Set Five, BIT 50 ppm, 3rd inoculation 24 h): 5 (>45 viable microorganisms Severely contaminated)
streak plate rating ([1]; Set Five, BIT 50 ppm, 3rd inoculation 48 h): 5 (>45 viable microorganisms Severely contaminated)
streak plate rating ([1]; Set Five, BIT 50 ppm, 3rd inoculation 72 h): 5 (>45 viable microorganisms Severely contaminated)
streak plate rating ([1]; Set Four, BIT 50 ppm, 1st inoculation 24 h): 5 (>45 viable microorganisms Severely contaminated)
streak plate rating ([1]; Set Four, BIT 50 ppm, 1st inoculation 48 h): 5 (>45 viable microorganisms Severely contaminated)
streak plate rating ([1]; Set Four, BIT 50 ppm, 1st inoculation 72 h): 5 (>45 viable microorganisms Severely contaminated)
streak plate rating ([1]; Set Four, BIT 50 ppm, 2nd inoculation 24 h): 5 (>45 viable microorganisms Severely contaminated)
streak plate rating ([1]; Set Four, BIT 50 ppm, 2nd inoculation 48 h): 5 (>45 viable microorganisms Severely contaminated)
streak plate rating ([1]; Set Four, BIT 50 ppm, 2nd inoculation 72 h): 5 (>45 viable microorganisms Severely contaminated)
streak plate rating ([1]; Set Four, BIT 50 ppm, 3rd inoculation 24 h): 5 (>45 viable microorganisms Severely contaminated)
streak plate rating ([1]; Set Four, BIT 50 ppm, 3rd inoculation 48 h): 5 (>45 viable microorganisms Severely contaminated)
streak plate rating ([1]; Set Four, BIT 50 ppm, 3rd inoculation 72 h): 5 (>45 viable microorganisms Severely contaminated)
streak plate rating ([1]; Set One, BIT 60 ppm, 1st inoculation 24 h): 5 (>45 viable microorganisms Severely contaminated)
streak plate rating ([1]; Set One, BIT 60 ppm, 1st inoculation 48 h): 5 (>45 viable microorganisms Severely contaminated)
streak plate rating ([1]; Set One, BIT 60 ppm, 1st inoculation 72 h): 5 (>45 viable microorganisms Severely contaminated)
streak plate rating ([1]; Set One, BIT 60 ppm, 2nd inoculation 24 h): 5 (>45 viable microorganisms Severely contaminated)
streak plate rating ([1]; Set One, BIT 60 ppm, 2nd inoculation 48 h): 5 (>45 viable microorganisms Severely contaminated)
streak plate rating ([1]; Set One, BIT 60 ppm, 3rd inoculation 24 h): 5 (>45 viable microorganisms Severely contaminated)
streak plate rating ([1]; Set One, BIT 60 ppm, 3rd inoculation 48 h): 5 (>45 viable microorganisms Severely contaminated)
streak plate rating ([1]; Set One, BIT 60 ppm, 3rd inoculation 72 h): 5 (>45 viable microorganisms Severely contaminated)
streak plate rating ([1]; Set One, BIT 120 ppm, 1st inoculation 24 h): 1 (1-5 viable microorganisms Very lightly contaminated)
streak plate rating ([1]; Set One, BIT 120 ppm, 1st inoculation 48 h): 3 (16-30 viable microorganisms Moderately contaminated)
streak plate rating ([1]; Set One, BIT 120 ppm, 1st inoculation 72 h): 3 (16-30 viable microorganisms Moderately contaminated)
streak plate rating ([1]; Set One, BIT 120 ppm, 2nd inoculation 24 h): 5 (>45 viable microorganisms Severely contaminated)
streak plate rating ([1]; Set One, BIT 120 ppm, 2nd inoculation 48 h): 5 (>45 viable microorganisms Severely contaminated)
streak plate rating ([1]; Set One, BIT 120 ppm, 3rd inoculation 24 h): 5 (>45 viable microorganisms Severely contaminated)
streak plate rating ([1]; Set One, BIT 120 ppm, 3rd inoculation 48 h): 5 (>45 viable microorganisms Severely contaminated)
streak plate rating ([1]; Set One, BIT 120 ppm, 3rd inoculation 72 h): 5 (>45 viable microorganisms Severely contaminated)
streak plate rating ([1]; Set Three, BIT 50 ppm, 1st inoculation 24 h): 5 (>45 viable microorganisms Severely contaminated)
streak plate rating ([1]; Set Three, BIT 50 ppm, 1st inoculation 48 h): 5 (>45 viable microorganisms Severely contaminated)
streak plate rating ([1]; Set Three, BIT 50 ppm, 1st inoculation 72 h): 5 (>45 viable microorganisms Severely contaminated)
streak plate rating ([1]; Set Three, BIT 50 ppm, 2nd inoculation 24 h): 5 (>45 viable microorganisms Severely contaminated)
streak plate rating ([1]; Set Three, BIT 50 ppm, 2nd inoculation 48 h): 5 (>45 viable microorganisms Severely contaminated)
streak plate rating ([1]; Set Three, BIT 50 ppm, 2nd inoculation 72 h): 5 (>45 viable microorganisms Severely contaminated)
streak plate rating ([1]; Set Three, BIT 50 ppm, 3rd inoculation 24 h): 5 (>45 viable microorganisms Severely contaminated)
streak plate rating ([1]; Set Three, BIT 50 ppm, 3rd inoculation 48 h): 5 (>45 viable microorganisms Severely contaminated)
streak plate rating ([1]; Set Three, BIT 50 ppm, 3rd inoculation 72 h): 5 (>45 viable microorganisms Severely contaminated)
streak plate rating ([1]; Set Two, BIT 25 ppm, 1st inoculation 24 h): 5 (>45 viable microorganisms Severely contaminated)
streak plate rating ([1]; Set Two, BIT 25 ppm, 1st inoculation 48 h): 5 (>45 viable microorganisms Severely contaminated)
streak plate rating ([1]; Set Two, BIT 25 ppm, 1st inoculation 72 h): 5 (>45 viable microorganisms Severely contaminated)
streak plate rating ([1]; Set Two, BIT 25 ppm, 2nd inoculation 24 h): 5 (>45 viable microorganisms Severely contaminated)
streak plate rating ([1]; Set Two, BIT 25 ppm, 2nd inoculation 48 h): 5 (>45 viable microorganisms Severely contaminated)
streak plate rating ([1]; Set Two, BIT 25 ppm, 2nd inoculation 72 h): 5 (>45 viable microorganisms Severely contaminated)
streak plate rating ([1]; Set Two, BIT 25 ppm, 3rd inoculation 24 h): 5 (>45 viable microorganisms Severely contaminated)
streak plate rating ([1]; Set Two, BIT 25 ppm, 3rd inoculation 48 h): 5 (>45 viable microorganisms Severely contaminated)
streak plate rating ([1]; Set Two, BIT 25 ppm, 3rd inoculation 72 h): 5 (>45 viable microorganisms Severely contaminated)
streak plate rating ([1]; Set Two, BIT 50 ppm, 1st inoculation 24 h): 5 (>45 viable microorganisms Severely contaminated)
streak plate rating ([1]; Set Two, BIT 50 ppm, 1st inoculation 48 h): 5 (>45 viable microorganisms Severely contaminated)
streak plate rating ([1]; Set Two, BIT 50 ppm, 1st inoculation 72 h): 5 (>45 viable microorganisms Severely contaminated)
streak plate rating ([1]; Set Two, BIT 50 ppm, 2nd inoculation 24 h): 5 (>45 viable microorganisms Severely contaminated)
streak plate rating ([1]; Set Two, BIT 50 ppm, 2nd inoculation 48 h): 5 (>45 viable microorganisms Severely contaminated)
streak plate rating ([1]; Set Two, BIT 50 ppm, 2nd inoculation 72 h): 5 (>45 viable microorganisms Severely contaminated)
streak plate rating ([1]; Set Two, BIT 50 ppm, 3rd inoculation 24 h): 5 (>45 viable microorganisms Severely contaminated)
streak plate rating ([1]; Set Two, BIT 50 ppm, 3rd inoculation 48 h): 5 (>45 viable microorganisms Severely contaminated)
streak plate rating ([1]; Set Two, BIT 50 ppm, 3rd inoculation 72 h): 5 (>45 viable microorganisms Severely contaminated)
Minimum Inhibitory Concentration (Staphylococcus aureus): 8.1 ppm
Minimum Inhibitory Concentration (Escherichia coli): 6.1 ppm
Minimum Inhibitory Concentration (Candida albicans): 8.1 ppm
Minimum Inhibitory Concentration (Aureobasidium pullulans): 4.1 ppm
Minimum Inhibitory Concentration (Aspergillus brasiliensis): 32.5 ppm
Minimum Inhibitory Concentration [2]: 32.5 ppm

— patent US10721934B2, “Enhanced preservative” (Arch Chemicals, Inc., priority 2013, dated 2020)
